ChEMBL document CHEMBL4823254, “Tetrahydroquinoline-Capped Histone Deacetylase 6 Inhibitor SW-101 Ameliorates Pathological Phenotypes in a Charcot-Marie-Tooth Type 2A Mouse Model” (J Med Chem, 2021)

The compounds below were run against Histone deacetylase 1 (Homo sapiens, UniProt Q13547). Conditions: not given.
Sequence of Histone deacetylase 1 (Q13547 whole entry): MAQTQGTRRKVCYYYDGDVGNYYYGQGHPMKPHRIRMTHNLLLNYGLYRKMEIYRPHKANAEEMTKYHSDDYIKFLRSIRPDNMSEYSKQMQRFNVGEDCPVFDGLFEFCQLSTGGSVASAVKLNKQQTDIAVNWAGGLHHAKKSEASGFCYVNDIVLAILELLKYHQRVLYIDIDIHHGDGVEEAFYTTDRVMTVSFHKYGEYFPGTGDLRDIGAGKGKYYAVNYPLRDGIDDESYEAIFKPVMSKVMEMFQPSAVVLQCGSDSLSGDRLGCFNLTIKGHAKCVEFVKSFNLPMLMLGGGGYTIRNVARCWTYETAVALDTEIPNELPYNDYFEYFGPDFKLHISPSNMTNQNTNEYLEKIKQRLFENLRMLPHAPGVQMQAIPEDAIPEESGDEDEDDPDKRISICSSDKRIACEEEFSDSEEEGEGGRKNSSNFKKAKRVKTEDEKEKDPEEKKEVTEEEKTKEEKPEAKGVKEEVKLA

SMILES	IC50
O=C(NO)c1ccc(CN2CCCc3cc(-c4cc[nH]n4)ccc32)cc1	184 nM
CCCc1ccc2c(c1)CCC(=O)N2Cc1ccc(C(=O)NO)cc1	306 nM
NC(=O)c1ccc2c(c1)CCCCN2Cc1ccc(C(=O)NO)cc1	150 nM
O=C(NO)c1ccc(CN2CCCCc3cc(Br)ccc32)cc1	1590 nM

These reach a lower IC50. Values come first.

IC50	SMILES
141 nM	N#Cc1ccc2c(c1)CCCN2Cc1ccc(C(=O)NO)cc1
107 nM	O=C(NO)c1ccc(CN2C(=O)CCc3cc(Br)ccc32)cc1

The compounds below were run against T1, Protein deacetylase HDAC6 (Mus musculus) (UniProt Q9Z2V5) (assay: Inhibition of HDAC6 in mouse Neuro2a cells assessed as fold increase in ratio of acetylated alpha-tubulin to alpha tubulin at 1 uM incubated for overnight by Western blot analysis). Conditions: time 12.0 hrs.
T1 sequence (whole entry): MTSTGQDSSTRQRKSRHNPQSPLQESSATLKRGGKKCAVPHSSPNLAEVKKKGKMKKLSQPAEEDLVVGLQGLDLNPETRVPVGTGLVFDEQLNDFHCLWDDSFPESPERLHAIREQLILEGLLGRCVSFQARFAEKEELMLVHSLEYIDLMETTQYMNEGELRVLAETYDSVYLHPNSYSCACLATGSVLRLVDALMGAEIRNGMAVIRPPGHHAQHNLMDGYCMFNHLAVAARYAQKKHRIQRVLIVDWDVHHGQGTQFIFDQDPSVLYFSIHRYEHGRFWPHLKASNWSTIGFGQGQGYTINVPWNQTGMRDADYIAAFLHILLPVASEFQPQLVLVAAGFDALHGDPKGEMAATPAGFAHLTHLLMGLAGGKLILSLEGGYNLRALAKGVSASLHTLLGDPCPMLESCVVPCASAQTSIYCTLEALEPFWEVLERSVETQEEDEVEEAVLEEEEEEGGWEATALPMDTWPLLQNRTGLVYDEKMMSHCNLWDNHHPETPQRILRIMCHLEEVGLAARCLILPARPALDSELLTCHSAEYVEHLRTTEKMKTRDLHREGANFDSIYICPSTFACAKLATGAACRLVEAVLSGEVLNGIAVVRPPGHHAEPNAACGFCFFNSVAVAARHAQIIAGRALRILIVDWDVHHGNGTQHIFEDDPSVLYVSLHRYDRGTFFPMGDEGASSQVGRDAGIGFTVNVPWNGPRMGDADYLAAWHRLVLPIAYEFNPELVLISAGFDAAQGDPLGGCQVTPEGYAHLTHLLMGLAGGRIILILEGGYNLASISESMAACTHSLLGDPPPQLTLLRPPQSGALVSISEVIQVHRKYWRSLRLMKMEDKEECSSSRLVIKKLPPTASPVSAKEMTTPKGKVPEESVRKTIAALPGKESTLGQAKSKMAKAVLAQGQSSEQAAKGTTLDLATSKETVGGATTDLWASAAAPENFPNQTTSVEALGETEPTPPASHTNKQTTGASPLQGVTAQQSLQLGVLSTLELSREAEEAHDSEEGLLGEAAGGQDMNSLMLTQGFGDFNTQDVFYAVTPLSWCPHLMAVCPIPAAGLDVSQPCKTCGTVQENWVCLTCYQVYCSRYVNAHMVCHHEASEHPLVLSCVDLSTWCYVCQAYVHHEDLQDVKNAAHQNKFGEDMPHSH
Type: cell-based

fold change (FC)	SMILES
2.14	O=C(NO)c1ccc(CN2CCCc3cc(-c4cc[nH]n4)ccc32)cc1
1.19	NC(=O)c1ccc2c(c1)CCCCN2Cc1ccc(C(=O)NO)cc1

The compounds below were run against T2, Histone deacetylase 8 (Homo sapiens, UniProt Q9BY41). Conditions: not given.
T2 sequence (Q9BY41 whole entry): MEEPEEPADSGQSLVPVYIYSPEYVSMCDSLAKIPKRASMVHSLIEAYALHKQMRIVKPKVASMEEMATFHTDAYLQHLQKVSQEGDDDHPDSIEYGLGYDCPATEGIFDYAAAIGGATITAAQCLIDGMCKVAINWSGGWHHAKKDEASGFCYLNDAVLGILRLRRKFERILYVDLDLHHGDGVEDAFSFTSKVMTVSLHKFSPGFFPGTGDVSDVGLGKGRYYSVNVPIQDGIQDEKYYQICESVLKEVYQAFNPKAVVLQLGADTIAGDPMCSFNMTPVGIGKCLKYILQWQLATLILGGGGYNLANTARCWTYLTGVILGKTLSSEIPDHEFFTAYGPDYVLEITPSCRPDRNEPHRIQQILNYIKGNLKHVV

SMILES	IC50
O=C(NO)c1ccc(CN2CCCc3cc(-c4cc[nH]n4)ccc32)cc1	792 nM
CCCc1ccc2c(c1)CCC(=O)N2Cc1ccc(C(=O)NO)cc1	2680 nM
NC(=O)c1ccc2c(c1)CCCCN2Cc1ccc(C(=O)NO)cc1	1060 nM
O=C(NO)c1ccc(CN2CCCCc3cc(Br)ccc32)cc1	4360 nM

Results, then the compound that gave them:

IC50	SMILES
1490 nM	N#Cc1ccc2c(c1)CCCN2Cc1ccc(C(=O)NO)cc1
743 nM	O=C(NO)c1ccc(CN2C(=O)CCc3cc(Br)ccc32)cc1

Each compound was assayed against T3, Protein deacetylase HDAC6 (Homo sapiens, UniProt Q9UBN7). Conditions: not given.
T3 sequence (Q9UBN7 whole entry): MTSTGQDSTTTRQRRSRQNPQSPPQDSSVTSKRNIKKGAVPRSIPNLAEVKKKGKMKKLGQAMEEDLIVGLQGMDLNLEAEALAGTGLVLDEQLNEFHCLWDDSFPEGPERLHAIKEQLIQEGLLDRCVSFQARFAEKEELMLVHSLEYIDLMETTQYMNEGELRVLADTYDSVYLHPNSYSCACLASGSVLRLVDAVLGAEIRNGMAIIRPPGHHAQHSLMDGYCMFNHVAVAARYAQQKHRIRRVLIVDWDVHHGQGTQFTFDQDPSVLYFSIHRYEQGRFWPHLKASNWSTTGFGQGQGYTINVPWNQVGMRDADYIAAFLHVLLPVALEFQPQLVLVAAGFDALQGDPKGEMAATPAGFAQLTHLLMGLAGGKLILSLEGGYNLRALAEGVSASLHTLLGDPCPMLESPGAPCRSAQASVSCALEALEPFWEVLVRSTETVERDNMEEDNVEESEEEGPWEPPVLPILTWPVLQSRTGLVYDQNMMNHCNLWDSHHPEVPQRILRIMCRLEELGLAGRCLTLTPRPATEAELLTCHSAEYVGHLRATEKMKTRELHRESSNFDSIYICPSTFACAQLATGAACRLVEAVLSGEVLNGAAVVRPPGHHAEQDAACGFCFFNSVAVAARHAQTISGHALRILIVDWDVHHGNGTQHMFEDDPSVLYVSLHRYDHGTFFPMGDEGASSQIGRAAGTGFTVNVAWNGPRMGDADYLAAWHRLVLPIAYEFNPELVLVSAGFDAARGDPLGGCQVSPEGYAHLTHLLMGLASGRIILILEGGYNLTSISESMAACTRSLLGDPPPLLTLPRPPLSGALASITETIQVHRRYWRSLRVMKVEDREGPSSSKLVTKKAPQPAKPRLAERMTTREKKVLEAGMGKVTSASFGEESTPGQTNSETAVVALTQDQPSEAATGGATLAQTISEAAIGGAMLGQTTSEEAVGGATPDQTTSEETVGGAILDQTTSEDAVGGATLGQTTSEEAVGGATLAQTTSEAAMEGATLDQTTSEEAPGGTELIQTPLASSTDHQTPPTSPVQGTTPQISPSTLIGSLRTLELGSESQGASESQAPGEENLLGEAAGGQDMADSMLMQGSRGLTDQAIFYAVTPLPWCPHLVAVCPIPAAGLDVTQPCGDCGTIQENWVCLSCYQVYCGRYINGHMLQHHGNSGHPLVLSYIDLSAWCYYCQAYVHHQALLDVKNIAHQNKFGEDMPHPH

SMILES	IC50
O=C(NO)c1ccc(CN2CCCc3cc(-c4cc[nH]n4)ccc32)cc1	0.3 nM
CCCc1ccc2c(c1)CCC(=O)N2Cc1ccc(C(=O)NO)cc1	12 nM
NC(=O)c1ccc2c(c1)CCCCN2Cc1ccc(C(=O)NO)cc1	2.4 nM
O=C(NO)c1ccc(CN2CCCCc3cc(Br)ccc32)cc1	9 nM

Continued, values first:

IC50	SMILES
1.3 nM	N#Cc1ccc2c(c1)CCCN2Cc1ccc(C(=O)NO)cc1
0.9 nM	O=C(NO)c1ccc(CN2C(=O)CCc3cc(Br)ccc32)cc1

What follows are compounds tested against T1, Protein deacetylase HDAC6 (Mus musculus) (assay: Inhibition of HDAC6 in mouse Neuro2a cells assessed as fold increase in ratio of acetylated alpha-tubulin to alpha tubulin at 0.01 uM incubated for overnight by Western blot analysis). Conditions: time 12.0 hrs.
Type: cell-based

fold change (FC)	SMILES
2.65	O=C(NO)c1ccc(CN2CCCc3cc(-c4cc[nH]n4)ccc32)cc1
2.4	NC(=O)c1ccc2c(c1)CCCCN2Cc1ccc(C(=O)NO)cc1
